From the supplement of paper PMC10477900
Structures can show the parent of a compound that is named as a salt.

Experiments:
HCT116 [1] = assay: viability inhibition vs untreated; higher = more cytotoxic; details: 72 h
HCT116 [2] = details: 72 h
Experimental: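 HCT116 control and MTA1-KO (CRISPR) HCT116 cells were seeded in 384-well plates (800 cells/well), treated 16 h later with 237 metabolism-related anticancer drugs at five doses (10 uM, 2 uM, 400 nM, 80 nM, 16 nM) for 72 h, two replicates; viability by CCK8. Values are % inhibition of viability relative to untreated cells, plus fitted IC50.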

Compound | viability inhibition (HCT116 [1]; genotype: MTA1-KO, 16 nM) | viability inhibition (HCT116 [1]; genotype: MTA1-KO, 80 nM) | viability inhibition (HCT116 [1]; genotype: MTA1-KO, 400 nM) | viability inhibition (HCT116 [1]; genotype: MTA1-KO, 2000 nM) | viability inhibition (HCT116 [1]; genotype: MTA1-KO, 10000 nM) | viability inhibition (HCT116 [1]; genotype: control, 16 nM) | viability inhibition (HCT116 [1]; genotype: control, 80 nM) | viability inhibition (HCT116 [1]; genotype: control, 400 nM) | viability inhibition (HCT116 [1]; genotype: control, 2000 nM) | viability inhibition (HCT116 [1]; genotype: control, 10000 nM) | IC50 (HCT116 [2]; genotype: MTA1-KO) | IC50 (HCT116 [2]; genotype: control)
O=C(/C=C/c1ccc2ccc(C(F)(F)F)cc2n1)c1ccncc1 [PFK158] | -5.2% | -29.6% | -31.5% | -28.1% | 121% | 8.64% | -5.17% | 1.7% | -5.11% | 96.2% | 3.1 µM | 3.89 µM
CCCCCCCCCCCCc1ccc(S(=O)(=O)Nc2nncs2)cc1 [PHT427] | -19.3% | -22.1% | -13% | -17.1% | -3.56% | 20.4% | -3.89% | -1.76% | -0.669% | 9.06% | > 10 µM | > 10 µM
Nc1cc(C(F)(F)F)c(-c2nc(N3CCOCC3)nc(N3CCOCC3)n2)cn1 [PI3K-IN-2] | 23.9% | 23% | 49.3% | 88.7% | 90.2% | -12.8% | 0.462% | 27.1% | 73.3% | 83.3% | 0.468 µM | 0.7 µM
Oc1cccc(-c2nc(N3CCOCC3)c3oc4ncccc4c3n2)c1 [PI103] | 7.63% | -22.6% | -6.55% | 42.3% | 80.5% | -15.1% | -2.17% | -8.02% | -2.63% | 80.1% | 1.82 µM | 5.97 µM
CC1=C(CSC(=S)N2CCCCC2)C(=O)c2ccccc2C1=O [PKM2 inhibitor] | -2.72% | -15.5% | -11% | 79.7% | 65.9% | -0.424% | -10.4% | -5.1% | 5.17% | 33.3% | 0.861 µM | > 10 µM
Nc1ncnc2c1c(-c1cnc3[nH]ccc3c1)nn2C1CCCC1 [PP121] | 14.3% | 12.8% | 43.5% | 90.3% | 111% | 10.8% | 16.8% | 25.2% | 86.4% | 104% | 0.675 µM | 0.874 µM
COCC1(CO)C(=O)C2CCN1CC2 (stereo not drawn) [PRIMA-1Met] | 7.04% | 1.21% | 20.1% | -5.66% | 5.13% | 13.6% | 13% | 5.28% | 1.17% | 30.6% | > 10 µM | > 10 µM
COc1ccc(COc2cc3oc(=O)c4cc(C(C)O)ccc4c3cc2OC)cc1 (stereo not drawn) [Palomid 529] | -7.41% | 23.6% | 37.3% | 64.4% | 90.1% | 7.44% | 22.7% | 38.9% | 54.6% | 86.9% | 0.283 µM | 1.11 µM
C=C1C(=O)O[C@H]2[C@H]1CC/C(C)=C/CC[C@@]1(C)O[C@@H]21 [Parthenolide] | 13.7% | 23.4% | 17.3% | 27.8% | 114% | -4.45% | 2.37% | -14.2% | -17.8% | 100% | 2.9 µM | 6.58 µM
Nc1nc2[nH]cc(CCc3ccc(C(=O)N[C@@H](CCC(=O)O)C(=O)O)cc3)c2c(=O)[nH]1 [Pemetrexed Disodium Hydrate] | -0.998% | 0.351% | -2.35% | 34.3% | 60.9% | -14.7% | -8.65% | -11.7% | -6.77% | 5.15% | 1.71 µM | > 10 µM
Nc1nc2[nH]cc(CCc3ccc(C(=O)N[C@@H](CCC(=O)O)C(=O)O)cc3)c2c(=O)[nH]1 [Pemetrexed disodium] | -3.16% | 1.56% | 17.8% | 28.6% | 32.9% | 21.1% | 13.2% | 10.5% | 70.6% | 69.4% | > 10 µM | 1.18 µM
NC(N)=NC(N)=NCCc1ccccc1 [Phenformin hydrochloride] | -11.4% | -9.26% | -10.6% | -4.27% | 20.1% | 12.5% | 18.4% | 9.46% | 8.84% | 42.4% | > 10 µM | > 10 µM
Cc1ccc(C(=O)Cn2c3c(sc2=N)CCCC3)cc1 [Pifithrin-α] | -1.55% | -3.09% | -7.19% | 3.88% | 32% | 9.06% | 2.07% | 21.3% | 9.85% | 22.1% | > 10 µM | > 10 µM
Cc1ccc(-c2cn3c4c(sc3n2)CCCC4)cc1 [Pifithrin-β hydrobromide] | -6.36% | -17.5% | -18.2% | -13.4% | 33% | -6.38% | -10.8% | -7.66% | 2.45% | -13.6% | > 10 µM | > 10 µM
NS(=O)(=O)C#Cc1ccccc1 [Pifithrin-μ] | -6.33% | -6.69% | -11.6% | -13.4% | -5.71% | 12.9% | -14.1% | -16.5% | -18.1% | 20.2% | > 10 µM | > 10 µM
O=C(O)C[C@H](O)C[C@H](O)/C=C/c1c(C2CC2)nc2ccccc2c1-c1ccc(F)cc1 [Pitavastatin calcium] | -24.4% | -25.7% | -30.7% | -23.8% | 31% | 11% | -0.547% | -0.73% | 5.9% | 75.5% | > 10 µM | 3.1 µM
C#CCC(Cc1cnc2nc(N)nc(N)c2n1)c1ccc(C(=O)N[C@@H](CCC(=O)O)C(=O)O)cc1 (stereo partly drawn) [Pralatrexate] | 37.5% | 71.4% | 71.7% | 75% | 77.3% | 52.4% | 77.9% | 78.8% | 80.6% | 79.1% | 0.022 µM | < 0.016 µM
CC[C@H](C)C(=O)O[C@H]1C[C@H](O)C=C2C=C[C@H](C)[C@H](CC[C@@H](O)C[C@@H](O)CC(=O)O)[C@H]21 [Pravastatin sodium] | 9.21% | -16.3% | -12.8% | -12.2% | -1.55% | 10.2% | -15.3% | -11.6% | -6.15% | 6.05% | > 10 µM | > 10 µM
CC(=O)OCC(=O)[C@@]1(O)CC[C@H]2[C@@H]3CCC4=CC(=O)C=C[C@]4(C)[C@H]3[C@@H](O)C[C@@]21C [Prednisolone-21-acetate] | -12.5% | -14% | -3.35% | -0.355% | -5.46% | -5.13% | -7.24% | -8.51% | -7.3% | -12.1% | > 10 µM | > 10 µM
